Assay results reported in patent EP4417602A1, “SUBSTITUTED PYRAZOLE CARBOXAMIDES, SALTS THEREOF AND THEIR USE AS HERBICIDALLY ACTIVE SUBSTANCES” (Bayer AG, priority 2023, dated 2024).

Key:
ECHCG [1] = assay: A. Herbicidal pre-emergence action on harmful plants (Tables A); format: in vivo, Echinochloa crus-galli; conditions: visual grading after ca. 3 weeks vs untreated controls, 100% = plants have died off, 0% = as control plants
In short: (§1)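 Greenhouse pre-emergence test: compound applied to the soil surface at 1280 g/ha or below, and herbicidal effect rated visually at ca. 3 weeks on a 0–100% scale against untreated plants.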

POAAN = assay: as above; format: in vivo, Poa annua
In short: as §1

ALOMY [2] = assay: as above; format: in vivo, Alopecurus myosuroides
In short: as §1

DIGSA = assay: as above; format: in vivo, Digitaria sanguinalis
In short: as §1

ECHCG [3] = assay: B. Herbicidal post-emergence action on harmful plants (Tables B); format: in vivo, Echinochloa crus-galli; conditions: application rate 1280 g/ha; Table B2a
In short: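 Activity was scored visually as % damage (100% = dead, 0% = like untreated) about 3 weeks after treatment. Plants at the one-leaf stage, 2-3 weeks old, were sprayed with WP/EC formulations plus 0.5% additive (600 L/ha water, up to 1280 g/ha). Plants were grown in sandy loam in a greenhouse.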

ALOMY [4] = assay: C. Herbicidal pre-emergence action, weed and crop plants (Tables C); format: in vivo, Alopecurus myosuroides
Description: (§2) Seeds of mono- and dicotyledonous weed plants and crop plants were sown, in plastic or organic planting pots, in sandy loam and covered with soil. The compounds according to the invention, formulated in the form of wettable powders (WP) or as emulsifiable concentrates (EC), were applied to the surface of the covering soil as aqueous suspension or emulsion, with the addition of 0.5% of an additive, at an application rate of 6001 of water/ha (converted). Following treatment, the pots were placed in a greenhouse and kept under optimum growth conditions for the test plants. The visual grading of the damage to the test plants was carried out after ca. 3 weeks in comparison to untreated controls (herbicidal effect in percent (%): 100% effect = plants have died off, 0% effect = as control plants). Tables C1 to C12 below show the effects of selected compounds of the general formula (I) according to table 1 on various harmful plants and an application rate corresponding to 320 g/ha or below obtained by the experimental procedure mentioned above. Table C1: pre-emergence activity at 320g/ha against KCHSC in %

ECHCG [5] = assay: as above; format: in vivo, Echinochloa crus-galli
In short: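 Seeds were sown in sandy loam and covered with soil. WP or EC formulations were sprayed onto the soil surface as aqueous suspension or emulsion with 0.5% additive, at rates of 320 g/ha or below. Plants were kept in a greenhouse, and damage was scored visually after about 3 weeks as % effect versus untreated controls (100% = dead, 0% = like control).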

LOLRI = assay: as above; format: in vivo, Lolium rigidum; conditions: application rate 320 g/ha; Table C7a
Description: as §2

ZEAMX = assay: F. Post-emergence effects on crop plants (Tables F); format: in vivo, Zea mays; conditions: application rate 80 g/ha, crop plant
In short: (§3)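 Plants were grown in sandy loam in a greenhouse and sprayed post-emergence at the single-leaf stage, 2–3 weeks after sowing. Visual damage was scored after ca. 3 weeks against untreated controls (0% = as control, 100% = dead).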

BRSNW = assay: as above; format: in vivo, Brassica napus; conditions: application rate 320 g/ha, crop plant
In short: as §3

CNC(=O)n1cc(C(=O)N2CCCC2Cc2ccccc2F)c(COC)n1 (racemic) [Example I-051]
100%: pre-emergence activity against POAAN (POAAN; application rate 320 g/ha, Table A7b) | pre-emergence activity against POAAN (POAAN; application rate 1280 g/ha, visual grading after ca. 3 weeks vs untreated controls, 100% = plants have died off, 0% = as control plants) | pre-emergence activity against ECHCG (ECHCG [5]; application rate 80 g/ha, Table C6b) | pre-emergence activity against ECHCG (ECHCG [5]; application rate 320 g/ha, Table C6a)
90%: pre-emergence activity against ECHCG (ECHCG [1]; application rate 80 g/ha) | pre-emergence activity against ECHCG (ECHCG [1]; application rate 320 g/ha) | pre-emergence activity against ECHCG (ECHCG [1]; application rate 1280 g/ha) | pre-emergence activity against POAAN (POAAN; application rate 80 g/ha, Table A7c) | pre-emergence activity against ALOMY (ALOMY [2]; application rate 320 g/ha, Table A9b) | pre-emergence activity against ALOMY (ALOMY [2]; application rate 1280 g/ha, Table A9a) | pre-emergence activity against DIGSA (DIGSA; application rate 320 g/ha, Table A12b) | pre-emergence activity against DIGSA (DIGSA; application rate 1280 g/ha, Table A12a) | post-emergence activity against ECHCG (ECHCG [3]) | pre-emergence activity against ALOMY (ALOMY [4]; application rate 320 g/ha, Table C2a) | pre-emergence activity against LOLRI (LOLRI)
20%: post-emergence activity against ZEAMX in % (ZEAMX) | post-emergence activity against BRSNW in % (BRSNW)
80%: pre-emergence activity against ALOMY (ALOMY [4]; application rate 80 g/ha, Table C2b)
